Measurements taken from US20250171495A1, “MUTLI-TARGETED SERINE PROTEASE INHIBITORS FOR TREATMENT OF CANCER AND VIRAL INFECTION” (Washington University, priority 2023, published 2025).
pIC50: −log10 of the molar value. Where two headings read alike, the source gives them in different places.

Experiments:
Assay type in all cases: biochemical
matriptase = target: T1, matriptase (Homo sapiens, UniProt Q9Y5Y6); experiment: Fluorogenic kinetic enzyme inhibitor assay, matriptase
T1 construct: purchased R&D Systems 3946-SEB-010
T1 sequence (Q9Y5Y6 615-855 limits assumed): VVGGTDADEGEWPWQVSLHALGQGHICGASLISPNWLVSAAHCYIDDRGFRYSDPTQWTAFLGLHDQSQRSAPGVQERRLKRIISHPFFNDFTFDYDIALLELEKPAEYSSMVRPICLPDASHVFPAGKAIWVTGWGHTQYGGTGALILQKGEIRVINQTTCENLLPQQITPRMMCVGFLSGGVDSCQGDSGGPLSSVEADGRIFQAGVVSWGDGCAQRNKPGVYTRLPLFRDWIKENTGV

hepsin = target: T2, hepsin (Homo sapiens, UniProt P05981); experiment: Fluorogenic kinetic enzyme inhibitor assay, hepsin
T2 construct: purchased R&D Systems 4776-SE-010

HGFA = target: T3, HGFA (Homo sapiens, UniProt Q04756); experiment: Fluorogenic kinetic enzyme inhibitor assay, HGFA
T3 construct: purchased R&D Systems 1514-SE-010
T3 sequence (Q04756 408-655 limits assumed): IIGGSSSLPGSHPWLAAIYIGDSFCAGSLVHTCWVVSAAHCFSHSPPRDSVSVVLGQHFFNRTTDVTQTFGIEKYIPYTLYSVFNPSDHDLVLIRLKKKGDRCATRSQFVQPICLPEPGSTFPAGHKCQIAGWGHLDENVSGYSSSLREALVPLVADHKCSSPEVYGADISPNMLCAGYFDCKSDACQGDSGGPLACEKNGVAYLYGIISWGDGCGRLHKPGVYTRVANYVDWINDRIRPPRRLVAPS
T3 sequence (Q04756 373-407 partner limits assumed): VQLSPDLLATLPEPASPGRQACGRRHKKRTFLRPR

TMPRSS2 = TMPRSS2 (Homo sapiens, UniProt O15393); experiment: Fluorogenic kinetic enzyme inhibitor assay, TMPRSS2; design: purchased Cusabio Technology CSB-YP023924HU
Sequence of TMPRSS2 (O15393 106-492 limits assumed): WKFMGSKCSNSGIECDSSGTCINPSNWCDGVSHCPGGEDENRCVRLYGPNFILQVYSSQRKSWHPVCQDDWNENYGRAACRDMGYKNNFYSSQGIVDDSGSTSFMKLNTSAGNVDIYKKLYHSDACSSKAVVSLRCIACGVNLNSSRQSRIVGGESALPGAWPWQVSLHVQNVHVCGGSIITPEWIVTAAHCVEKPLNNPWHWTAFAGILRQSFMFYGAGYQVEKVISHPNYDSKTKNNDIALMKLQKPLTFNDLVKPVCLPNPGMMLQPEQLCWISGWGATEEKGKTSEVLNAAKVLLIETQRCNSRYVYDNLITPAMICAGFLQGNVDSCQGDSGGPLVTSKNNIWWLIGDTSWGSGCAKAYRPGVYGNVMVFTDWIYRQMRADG

T2 sequence (P05981 163-417 limits assumed): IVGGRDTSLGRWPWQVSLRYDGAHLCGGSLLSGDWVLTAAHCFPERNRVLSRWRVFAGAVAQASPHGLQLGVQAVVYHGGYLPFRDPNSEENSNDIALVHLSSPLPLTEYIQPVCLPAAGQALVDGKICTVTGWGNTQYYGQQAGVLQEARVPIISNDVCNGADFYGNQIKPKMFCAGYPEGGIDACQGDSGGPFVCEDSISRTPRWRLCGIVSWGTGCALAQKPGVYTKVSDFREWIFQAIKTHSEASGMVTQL
T2 sequence (P05981 1-162 partner limits assumed): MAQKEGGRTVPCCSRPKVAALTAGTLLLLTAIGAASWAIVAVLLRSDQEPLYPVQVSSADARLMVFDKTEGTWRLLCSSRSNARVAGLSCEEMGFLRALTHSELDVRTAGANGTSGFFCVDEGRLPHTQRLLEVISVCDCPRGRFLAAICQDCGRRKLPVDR

Structure (SMILES)	pIC50 (matriptase; read-out: Matriptase IC50)	pIC50 (hepsin; read-out: Hepsin IC50)	pIC50 (HGFA; read-out: HGFA IC50)	pIC50 (TMPRSS2; read-out: TMPRSS2 IC50)	pIC50 (matriptase)	further results
CC(=O)N[C@@H](CC(C)C)C(=O)N[C@@H](CC(C)C)C(=O)N[C@@H](CCCNC(=N)N)C(=O)c1nccs1 [ZFH6201-1, N-[(S)-4-guanidino-1-[(1,3-thiazol-2-yl)carbonyl]butyl](S)-2-[(S)-2-acetylamino-4-methylvalerylamino]-4-methylvaleramide]	7.25	8.34	6.30	7.35	–	–
CC(=O)N[C@H]1Cc2ccc(cc2)Oc2cccc(c2)C[C@@H](C(=O)N[C@H](CCCNC(=N)N)C(=O)c2nc3ccccc3s2)NC(=O)[C@H](CC(C)C)NC1=O [VD5064A, N-{(R)-1-[(1,3-benzothiazol-2-yl)carbonyl]-4-guanidinobutyl}-(9S,12S,15S)-15-acetylamino-12-isobutyl-11,14-dioxo-2-oxa-10,13-diazatricyclo[15.2.2.1^3,^7]docosa-1(19),3,5,7(22),17,20-hexaene-9-carboxamide]	–	8.59	6.26	6.58	6.17	–
CC(=O)N[C@@H](Cc1cncn1COCc1ccccc1)C(=O)N[C@@H](CCC(C)C)C(=O)N[C@@H](CCCNC(=N)N)C(=O)c1nc2ccccc2s1 [JH1142-2, N-[(S)-1-[(1,3-benzothiazol-2-yl)carbonyl]-4-guanidinobutyl](S)-2-[(S)-2-acetylamino-3-{1-[(benzyloxy)methyl]-5-imidazolyl}propionylamino]-5-methylhexanamide]	8.94	9.03	6.88	–	–	–
CC(=O)N[C@@H](CO)C(=O)N[C@@H](CCC(N)=O)C(=O)N[C@@H](CC(C)C)C(=O)N[C@@H](CCCNC(=N)N)C(=O)c1nccs1 [ZFH6138, N-[(S)-3-methyl-1-[N-(S)-4-guanidino-1-[(1,3-thiazol-2-yl)carbonyl]butylcarbamoyl]butyl](S)-2-[(S)-2-acetylamino-3-hydroxypropionylamino]glutaramide]	–	9.17	–	8.81	7.74	pIC50 (HGFA): 6.44
CC(=O)N[C@@H](CO)C(=O)N[C@@H](Cc1cncn1COCc1ccccc1)C(=O)N[C@@H](CC(C)C)C(=O)N[C@@H](CCCNC(=N)N)C(=O)c1nc2ccccc2s1 [MM4036-2, N-[(S)-1-[(1,3-benzothiazol-2-yl)carbonyl]-4-guanidinobutyl](S)-2-[(S)-2-[(S)-2-acetylamino-3-hydroxypropionylamino]-3-{1-[(benzyloxy)methyl]-5-imidazolyl}propionylamino]-4-methylvaleramide]	–	8.55	5.97	–	7.11	–
CC(=O)N[C@H]1Cc2ccc(cc2)OCCCC[C@@H](C(=O)N[C@H](CCCNC(=N)N)C(=O)c2nc3ccccc3s2)NC(=O)[C@H](Cc2ccccc2)NC1=O [VD4111A, N-[(R)-1-[(1,3-benzothiazol-2-yl)carbonyl]-4-guanidinobutyl]-(7S,10S,13S)-13-acetylamino-10-benzyl-9,12-dioxo-2-oxa-8,11-diazabicyclo[13.2.2]nonadeca-1(17),15,18-triene-7-carboxamide]	–	–	–	–	6.48	pIC50 (hepsin): 7.90; pIC50 (HGFA): 5.48
CC(=O)N1CCC[C@H]1C(=O)N[C@@H](CO)C(=O)N[C@@H](CCCCN)C(=O)N[C@H](CCCNC(=N)N)C(=O)c1nc2ccccc2s1 [MM3194C, N-[(S)-2-hydroxy-1-[N-(S)-5-amino-1-[N-(R)-1-[(1,3-benzothiazol-2-yl)carbonyl]-4-guanidinobutylcarbamoyl]pentylcarbamoy1]ethyl]-(S)-1-acetyl-2-pyrrolidinecarboxamide]	–	7.60	< 4.70	–	8.24	–
CCC(C)[C@H](NC(C)=O)C(=O)N[C@H](Cc1cc2ccccc2[nH]1)C(=O)N[C@@H](Cc1ccccc1)C(=O)N[C@@H](CCCNC(=N)N)C(=O)c1nc2ccccc2s1 (stereo partly drawn) [MM4038, N-[(R)-2-(2-indolyl)-1-[N-(S)-1-[N-(S)-1-[(1,3-benzothiazol-2-yl)carbonyl]-4-guanidinobutylcarbamoyl]-2-phenylethylcarbamoy1]ethyl](2S)-2-acetylamino-3-methylvaleramide]	–	7.91	7.18	10.40	–	–
CCC(C)[C@H](NC(C)=O)C(=O)N[C@@H](CO)C(=O)N[C@@H](Cc1ccccc1)C(=O)N[C@H](CCCNC(=N)N)C(=O)c1nc2ccccc2s1 (stereo partly drawn) [MM4009-1, N-[(S)-2-hydroxy-1-[N-(S)-1-[N-(R)-1-[(1,3-benzothiazol-2-yl)carbonyl]-4-guanidinobutylcarbamoyl]-2-phenylethylcarbamoyl]ethyl](2S)-2-acetylamino-3-methylvaleramide]	–	8.68	5.87	–	7.74	–
CCC(C)[C@H](NC(C)=O)C(=O)N[C@@H](CCSC)C(=O)N[C@@H](Cc1ccccc1)C(=O)N[C@H](CCCNC(=N)N)C(=O)c1nc2ccccc2s1 (stereo partly drawn) [MM4027-1, N-[(S)-3-(methylthio)-1-[N-(S)-1-[N-(R)-1-[(1,3-benzothiazol-2-yl)carbonyl]-4-guanidinobutylcarbamoyl]-2-phenylethylcarbamoyl]propyl](2S)-2-acetylamino-3-methylvaleramide]	–	–	6.63	8.25	–	–
CC(=O)N[C@H]1Cc2ccc(cc2)OCCCC[C@@H](C(=O)N[C@@H](CCCNC(=N)N)C(=O)c2nc3ccccc3s2)NC(=O)[C@@H](Cc2c[nH]c3ccccc23)NC1=O [8b]	–	–	8.48	–	–	pIC50 (hepsin; 30 min incubation, Boc-QAR-AMC at Km, read-out: Hepsin IC50): 9.27
CCC[C@H](NC(=O)OCC1c2ccccc2-c2ccccc21)C(=O)N[C@@H](CCCNC(=N)N)C(=O)c1nc2ccccc2s1 [MF1150, (S)-1-[N-(S)-1-[(1,3-benzothiazol-2-yl)carbonyl]-4-guanidinobutylcarbamoyl] butyl (9H-fluoren-9-yl)methanecarbamate]	8.26	7.53	–	7.72	–	–
CC(=O)N1C(C(=O)N[C@@H](CCC(=O)OC2CCCCC2)C(=O)N[C@@H](Cc2ccc(F)cc2)C(=O)N[C@@H](CCCNC(=N)N)C(=O)c2nc3ccccc3s2)CC2CCCCC21 (stereo partly drawn) [MF1064, cyclohexyl (S)-4-[(2R)-1-acetyloctahydro-2H-indol-2-ylcarbonylamino]-4-[N-(S)-2-(p-fluorophenyl)-1-[N-(S)-1-[(1,3-benzothiazol-2-yl)carbonyl]-4-guanidinobutylcarbamoyl]ethylcarbamoyl]butyrate]	–	9.08	–	11.40	8.91	–
N=C(N)NCCC[C@H](NC(=O)[C@H](Cc1ccc(F)c(F)c1)NC(=O)OCC1c2ccccc2-c2ccccc21)C(=O)c1nc2ccccc2s1 [MF1132, (S)-2-(3,4-difluorophenyl)-1-[N-(S)-1-[(1,3-benzothiazol-2-yl)carbonyl]-4-guanidinobutylcarbamoyl]ethyl (9H-fluoren-9-yl)methanecarbamate]	6.84	6.64	–	7.54	–	–
N=C(N)NCCC[C@H](NC(=O)[C@H](CCC1CCCCC1)NC(=O)OCC1c2ccccc2-c2ccccc21)C(=O)c1nc2ccccc2s1 [MF1149, (S)-3-cyclohexyl-1-[N-(S)-1-[(1,3-benzothiazol-2-yl)carbonyl]-4-guanidinobutylcarbamoyl] propyl (9H-fluoren-9-yl)methanecarbamate]	7.74	5.64	–	< 4.70	–	–
CC(=O)N[C@@H](CO)C(=O)NCc1cccc(CC(=O)N[C@@H](CC(C)C)C(=O)N[C@H](CCCNC(=N)N)C(=O)c2nc3ccccc3s2)c1 [MM1132-1, N-[(R)-1-[(1,3-benzothiazol-2-yl)carbonyl]-4-guanidinobutyl](S)-2-{[(m-{[(S)-2-acetylamino-3-hydroxypropionylamino]methyl}phenyl)methyl]carbonylamino}-4-methylvaleramide]	6.38	8.72	5.49	–	–	–
C=CCOC(=O)CC[C@H](NC(=O)[C@H](CCC(C)C)NC(C)=O)C(=O)N[C@@H](Cc1ccc(F)cc1)C(=O)N[C@@H](CCCNC(=N)N)C(=O)c1nc2ccccc2s1 [MF1140, allyl (S)-4-[(S)-1-acetylamino-4-methylpentylcarbonylamino]-4-[N-(S)-2-(p-fluorophenyl)-1-[N-(S)-1-[(1,3-benzothiazol-2-yl)carbonyl]-4-guanidinobutylcarbamoyl]ethylcarbamoyl]butyrate]	–	–	–	–	8.54	pIC50 (hepsin): 7.96; pIC50 (TMPRSS2): 12.00
N=C(N)NCCC[C@H](NC(=O)[C@H](Cc1cccc(F)c1)NC(=O)OCC1c2ccccc2-c2ccccc21)C(=O)c1nc2ccccc2s1 [MF1141, (S)-2-(m-fluorophenyl)-1-[N-(S)-1-[(1,3-benzothiazol-2-yl)carbonyl]-4-guanidinobutylcarbamoyl] ethyl (9H-fluoren-9-yl)methanecarbamate]	5.94	6.46	–	7.89	–	–
